Reference: patent publication US4960790A, “Derivatives of taxol, pharmaceutical compositions thereof and methods for the preparation thereof” (University of Kansas, priority 1989, dated 1990)

How the values were obtained:
B-16 melanoma cells = assay: In vitro B16 melanoma cell proliferation; assay type: cell-based; settings: rank order
Description: These studies were conducted according to standard procedures as described in Donoso and Himes, Cancer Biochem. Biophysics, vol. 7, (1984), p. 133.

[1] = in words; cited from earlier work
microtubule assembly = assay: In vitro microtubule assembly kinetics; assay type: biochemical; settings: rank order
Description: (A) In vitro Microtubule Assembly Kinetics Studies
The microtubule assembly study was conducted using both 2' and 7-derivatives according to the in vitro procedures disclosed, for example, in Mellado et al., Biochemical and Biophysical Research Communications, Vol. 124, No. 2 (1984), pp. 329-336; Magri et al., J. Org. Chem., 51, 797-802 (1986); and Parness et al., Biochemical and Biophysical Research Communications, Vol. 105, No. 3, pp. 1082-1091 (1982).

microtubules = settings: in vitro / cells, in words; cited from earlier work
tumors = settings: in words; cited from earlier work
[2] = system: human mammary carcinoma MX-1 xenograft; assay: Subrenal capsule human mammary carcinoma MX-1 xenograft in mice; settings: for ANML BODY WT DIFF (test minus control) / TEST BODY WT CHG / # OF ANMLS ALIVE CALC/TOTAL / Average tumor WEIGHT CHANGE (DELTA) / Average tumor weight, FINAL: Q4D; for ANML BODY WT DIFF (test minus control) / TEST BODY WT CHG: Day 1 to 11; for # OF ANMLS ALIVE CALC/TOTAL / Average tumor WEIGHT CHANGE (DELTA) / Average tumor weight, FINAL / % T/C: Day 11; for % T/C: Q4D Days 1, 5, 9
From the text: The procedures followed are those described at pages 23-24 of NIH Publication No. 84-2635, In Vivo Cancer Model (February 1984).
In the procedure, test groups of mice (6 mice per test group) and control groups of 12 mice per group are utilized. A tumor fragment (human mammary carcinoma MX-1 xenograft), is implanted under the membranous covering of the kidney of each mouse.
Day 0: Anesthetize animals. Record body weight (Weigh Day 1). Implant tumor, measure and record. Randomize animals after they recover from the anesthetic. Run bacterial cultures. Determine solubilities of test agent. Record deaths daily.
Day 1: Check cultures. Discard experiment if contaminated. Prepare test materials. Initiate test agent injections (in the nape of the neck) based on individual body weight. Treatment is Q4D on Days 1, 5, and 9. Prepare test agent fresh on each injection day and administer based on individual body weight for that day.
Days 5 and 9: Prepare test agent fresh on each injection day and administer based on individual body weight for that day.
Day 11: End and evaluate experiment. Record body weights (Weigh Day 2). Measure tumor in OMU's (Ocular Micrometer Unit--10 OMU's=1 mm) and record.
The parameter measured is mean tumor weight change (delta) based on length and width measurements in millimeters. Mean animal body weights are computed for Day 1 and Day 11, compute T/C for all test groups with>65% survivors on Day 11. An excessive body weight change difference (test minus control) may also be used in evaluating toxicity. The dimensions are measured and recorded in Ocular Micrometer Units (OMU). A computer is utilized for the following:
(1) Converts OMU's to millimeters (mm).
(2) Calculates tumor weights (mgs) from tumor dimensions (mm×mm) following the formula for the volume of a prolate ellipsoid: [formula] (3) Calculates the change (delta) in mean tumor weight for each group of mice:
Change in Mean Tumor Weight=Mean Tumor WeightFINAL -Mean Tumor WeightINITIAL.
(4) Calculates the change (delta) in mean tumor weight for test (T) and control (C) groups.
(5) Calculates T/C% for all test groups with>65% survivors on Final Evaluation Day: [formula]

Compound: CC(=O)O[C@H]1C(=O)[C@@]2(C)[C@H]([C@H](OC(=O)c3ccccc3)[C@]3(O)C[C@H](OC(=O)[C@H](O)[C@@H](NC(=O)c4ccccc4)c4ccccc4)C(C)=C1C3(C)C)[C@]1(OC(C)=O)CO[C@@H]1C[C@@H]2O [Taxol]
- Order of effectiveness in B-16 melanoma cell proliferation study (B-16 melanoma cells): taxol>2'-(N,N-dimethylglycyl)taxol>2'-(N,N-diethylaminopropionyl)taxol>7-(N,N-dimethylglycyl)taxol
- Water solubility [1]: only very slightly soluble in water
- Ability to assemble microtubules (order) (microtubule assembly): taxol >7-(N,N-dimethylglycyl)taxol(11)>2'(N,N-diethylaminopropionyl)taxol(8)>2'(N,N-dimethylglycyl)taxol(2)
- Effect on microtubules (microtubules): promotes the assembly of microtubules but inhibits their disassembly
- Antitumor activity (tumors): potent antitumor activity against a wide variety of tumors
- ANML BODY WT DIFF (test minus control) ([2]; Table 1, 4.45 mg/kg): .5
- TEST BODY WT CHG ([2]; Table 1, 4.45 mg/kg): -1.2
- # OF ANMLS ALIVE CALC/TOTAL ([2]; Table 1, 4.45 mg/kg): 5/5
- Average tumor WEIGHT CHANGE (DELTA) ([2]; Table 1, 4.45 mg/kg): -.79 MGS
- Average tumor weight, FINAL ([2]; Table 1, 4.45 mg/kg): .00 MGS
- ANML BODY WT DIFF (test minus control) ([2]; Table 1, 6.67 mg/kg): .2
- TEST BODY WT CHG ([2]; Table 1, 6.67 mg/kg): -1.5
- # OF ANMLS ALIVE CALC/TOTAL ([2]; Table 1, 6.67 mg/kg): 5/5
- Average tumor WEIGHT CHANGE (DELTA) ([2]; Table 1, 6.67 mg/kg): -.74 MGS
- Average tumor weight, FINAL ([2]; Table 1, 6.67 mg/kg): .00 MGS
- % T/C ([2]; Table 1, 10.00 mg/kg): -84%
- ANML BODY WT DIFF (test minus control) ([2]; Table 1, 10.00 mg/kg): -.3
- TEST BODY WT CHG ([2]; Table 1, 10.00 mg/kg): -2.0
- # OF ANMLS ALIVE CALC/TOTAL ([2]; Table 1, 10.00 mg/kg): 6/6
- Average tumor WEIGHT CHANGE (DELTA) ([2]; Table 1, 10.00 mg/kg): -.49 MGS
- Average tumor weight, FINAL ([2]; Table 1, 10.00 mg/kg): .09 MGS
- ANML BODY WT DIFF (test minus control) ([2]; Table 1, 15.00 mg/kg): -2.5
- TEST BODY WT CHG ([2]; Table 1, 15.00 mg/kg): -4.2
- # OF ANMLS ALIVE CALC/TOTAL ([2]; Table 1, 15.00 mg/kg): 6/6
- Average tumor WEIGHT CHANGE (DELTA) ([2]; Table 1, 15.00 mg/kg): -.81 MGS
- Average tumor weight, FINAL ([2]; Table 1, 15.00 mg/kg): .00 MGS
- % T/C ([2]; Table 1, 22.40 mg/kg): TOX
- ANML BODY WT DIFF (test minus control) ([2]; Table 1, 22.40 mg/kg): -.9
- TEST BODY WT CHG ([2]; Table 1, 22.40 mg/kg): -2.6
- # OF ANMLS ALIVE CALC/TOTAL ([2]; Table 1, 22.40 mg/kg): 3/6
- Average tumor weight, FINAL ([2]; Table 1, 22.40 mg/kg): .00 MGS
- % T/C ([2]; Table 2, 1.88 mg/kg): 5%
- ANML BODY WT DIFF (test minus control) ([2]; Table 2, 1.88 mg/kg): 3.0
- TEST BODY WT CHG ([2]; Table 2, 1.88 mg/kg): -1.0
- # OF ANMLS ALIVE CALC/TOTAL ([2]; Table 2, 1.88 mg/kg): 4/5
- Average tumor WEIGHT CHANGE (DELTA) ([2]; Table 2, 1.88 mg/kg): .71 MGS
- Average tumor weight, FINAL ([2]; Table 2, 1.88 mg/kg): 1.51 MGS
- ANML BODY WT DIFF (test minus control) ([2]; Table 2, 3.75 mg/kg): 1.1
- TEST BODY WT CHG ([2]; Table 2, 3.75 mg/kg): -2.9
- # OF ANMLS ALIVE CALC/TOTAL ([2]; Table 2, 3.75 mg/kg): 4/5
- Average tumor WEIGHT CHANGE (DELTA) ([2]; Table 2, 3.75 mg/kg): -.71 MGS
- Average tumor weight, FINAL ([2]; Table 2, 3.75 mg/kg): .00 MGS
- % T/C ([2]; Table 2, 7.50 mg/kg): TOX
- ANML BODY WT DIFF (test minus control) ([2]; Table 2, 7.50 mg/kg): 2.3
- TEST BODY WT CHG ([2]; Table 2, 7.50 mg/kg): -1.7
- # OF ANMLS ALIVE CALC/TOTAL ([2]; Table 2, 7.50 mg/kg): 3/5
- Average tumor weight, FINAL ([2]; Table 2, 7.50 mg/kg): .00 MGS
- % T/C ([2]; Table 2, 15.00 mg/kg): TOX
- # OF ANMLS ALIVE CALC/TOTAL ([2]; Table 2, 15.00 mg/kg): 0/5
